Drawing on ChEMBL document CHEMBL1140977, “Synthesis and screening of a cyclic peptide library: discovery of small-molecule ligands against human prolactin receptor” (Bioorg Med Chem, 2009), this text covers Kd and Activity for three compounds.

Active and inactive are the calls of the source. The rule behind the calls is not given here. Square brackets hold non-standard residues; d marks the D form. Peptide text beside a SMILES is read from it. NMeL = CN[C@@H](CC(C)C)C(=O)O

One assay deals with T1, Prolactin receptor (Homo sapiens, UniProt P16471).
T1 sequence (P16471 whole entry): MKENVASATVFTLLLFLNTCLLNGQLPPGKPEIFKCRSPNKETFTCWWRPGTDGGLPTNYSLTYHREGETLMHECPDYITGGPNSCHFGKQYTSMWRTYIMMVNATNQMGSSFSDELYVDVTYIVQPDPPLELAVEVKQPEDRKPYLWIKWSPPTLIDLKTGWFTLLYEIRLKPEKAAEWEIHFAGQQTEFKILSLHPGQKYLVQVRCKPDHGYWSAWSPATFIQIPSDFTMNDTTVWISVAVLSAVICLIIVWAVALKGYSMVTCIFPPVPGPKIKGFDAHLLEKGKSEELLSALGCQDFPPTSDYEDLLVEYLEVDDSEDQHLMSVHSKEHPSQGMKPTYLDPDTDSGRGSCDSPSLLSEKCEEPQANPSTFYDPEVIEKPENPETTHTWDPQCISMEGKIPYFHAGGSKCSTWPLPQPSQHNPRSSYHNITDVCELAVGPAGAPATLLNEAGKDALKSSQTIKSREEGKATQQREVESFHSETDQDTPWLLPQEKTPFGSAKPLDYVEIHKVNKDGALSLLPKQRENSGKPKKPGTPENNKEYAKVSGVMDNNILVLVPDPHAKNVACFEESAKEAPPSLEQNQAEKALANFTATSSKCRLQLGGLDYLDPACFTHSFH
In words: (§1) Binding affinity to human prolactin receptor extracellular binding domain by surface plasmon […].

Assay [1] concerns the target T2, Prolactin receptor (Homo sapiens) (UniProt P16471).
T2 sequence (whole entry): T1 sequence (P16471 whole entry)
Described as §1.

A word on the Kd: it is a measure of binding affinity in units of concentration. Regarding `CC(C)C[C@H]1NC(=O)[C@@H](C)NC(=O)[C@H](CCC(=O)O)NC(=O)[C@H](C(C)C)NC(=O)[C@H](CCCNC(=N)N)NC(=O)[C@H](Cc2ccc(O)cc2)NC(=O)[C@H](CO)NC(=O)[C@H](Cc2ccc(O)cc2)NC1=O`, the Kd at Prolactin receptor was determined as 3000 nM.
Consider `CC(C)C[C@H]1C(=O)N[C@@H](CCC(N)=O)C(=O)N[C@@H](CCCNC(=N)N)C(=O)N[C@@H](Cc2ccccc2)C(=O)N[C@@H](C(C)C)C(=O)N[C@@H](CCC(=O)O)C(=O)N[C@@H](C)C(=O)NCC(=O)N1C` (cyclo(AG[NMeL]QRFVE)), for which, in assay [1], the outcome was inactive.
Consider `CC(C)[C@@H]1NC(=O)[C@H](CCCNC(=N)N)NC(=O)[C@H](CO)NC(=O)[C@H](CCC(N)=O)NC(=O)[C@H](Cc2ccc(O)cc2)NC(=O)[C@H](CCCNC(=N)N)NC(=O)[C@H](C)NC(=O)[C@H](CCC(=O)O)NC1=O` (cyclo(ARYQSRVE)), for which the affinity at Prolactin receptor, expressed as Kd, was 2000 nM.
